Results published in ChEMBL document CHEMBL5696442, “Discovery of type II inhibitors of TGFβ-activated kinase 1 (TAK1) and mitogen-activated protein kinase kinase kinase kinase 2 (MAP4K2)” (J Med Chem, 2015).

Assays:
[1] = biological target: T1, Serine/threonine-protein kinase greatwall (Homo sapiens) (UniProt Q96GX5); assay: Inhibition of MASTL Lys2 labeling site in human Huh-7 cell lysate at 1 uM by KiNativ Profiling analysis relative to control; format: subcellular
T1 sequence (whole entry): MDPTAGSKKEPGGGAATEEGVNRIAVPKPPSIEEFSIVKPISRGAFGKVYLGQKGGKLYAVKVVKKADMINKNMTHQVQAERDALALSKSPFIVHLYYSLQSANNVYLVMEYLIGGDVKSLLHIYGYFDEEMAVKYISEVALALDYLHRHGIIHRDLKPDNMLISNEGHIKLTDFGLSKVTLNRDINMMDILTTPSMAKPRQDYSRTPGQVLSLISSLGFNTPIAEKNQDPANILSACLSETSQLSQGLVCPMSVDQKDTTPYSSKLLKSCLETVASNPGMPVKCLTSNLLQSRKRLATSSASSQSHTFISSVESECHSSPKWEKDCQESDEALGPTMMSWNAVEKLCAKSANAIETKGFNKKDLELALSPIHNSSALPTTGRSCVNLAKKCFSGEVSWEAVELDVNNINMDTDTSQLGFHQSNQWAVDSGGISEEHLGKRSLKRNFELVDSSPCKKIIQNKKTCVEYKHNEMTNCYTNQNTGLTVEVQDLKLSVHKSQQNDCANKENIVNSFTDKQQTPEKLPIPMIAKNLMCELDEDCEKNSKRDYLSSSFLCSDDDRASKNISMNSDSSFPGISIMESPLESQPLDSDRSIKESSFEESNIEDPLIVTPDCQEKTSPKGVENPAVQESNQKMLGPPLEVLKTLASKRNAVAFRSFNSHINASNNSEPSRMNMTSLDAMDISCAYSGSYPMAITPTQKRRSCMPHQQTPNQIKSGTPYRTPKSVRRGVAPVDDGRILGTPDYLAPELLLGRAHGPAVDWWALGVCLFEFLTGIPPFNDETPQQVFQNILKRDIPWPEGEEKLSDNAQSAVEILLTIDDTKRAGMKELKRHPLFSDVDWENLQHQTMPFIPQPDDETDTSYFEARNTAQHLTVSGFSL

[2] = biological target: Tyrosine-protein kinase CSK (Homo sapiens, UniProt P41240); assay: Inhibition of CSK ACT labeling site harbouring EASSTQDTGKLPVKWTAPEALR in human Huh-7 cell lysate at 1 uM by KiNativ Profiling analysis relative to control; format: subcellular
Tyrosine-protein kinase CSK, sequence (P41240 2-450 limits assumed): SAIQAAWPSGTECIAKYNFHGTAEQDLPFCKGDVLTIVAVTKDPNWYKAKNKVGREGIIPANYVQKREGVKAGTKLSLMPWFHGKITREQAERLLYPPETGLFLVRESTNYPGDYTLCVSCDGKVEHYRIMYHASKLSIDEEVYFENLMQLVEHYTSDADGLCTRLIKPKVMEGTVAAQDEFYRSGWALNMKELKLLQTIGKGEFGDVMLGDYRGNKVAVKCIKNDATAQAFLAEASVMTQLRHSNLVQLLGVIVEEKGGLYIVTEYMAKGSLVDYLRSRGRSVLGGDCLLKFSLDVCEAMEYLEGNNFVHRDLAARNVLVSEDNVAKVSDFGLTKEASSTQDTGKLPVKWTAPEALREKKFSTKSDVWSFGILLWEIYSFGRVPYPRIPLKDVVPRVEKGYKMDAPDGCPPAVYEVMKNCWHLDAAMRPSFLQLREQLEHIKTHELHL

[3] = biological target: Fibroblast growth factor receptor 4 (Homo sapiens) (UniProt P22455); assay: Inhibition of FGFR4 (unknown origin) at 1 uM by Ambit Kinomescan binding assay relative to control; values are per cent of control
Fibroblast growth factor receptor 4 (Homo sapiens), sequence (P22455 22-802 limits assumed): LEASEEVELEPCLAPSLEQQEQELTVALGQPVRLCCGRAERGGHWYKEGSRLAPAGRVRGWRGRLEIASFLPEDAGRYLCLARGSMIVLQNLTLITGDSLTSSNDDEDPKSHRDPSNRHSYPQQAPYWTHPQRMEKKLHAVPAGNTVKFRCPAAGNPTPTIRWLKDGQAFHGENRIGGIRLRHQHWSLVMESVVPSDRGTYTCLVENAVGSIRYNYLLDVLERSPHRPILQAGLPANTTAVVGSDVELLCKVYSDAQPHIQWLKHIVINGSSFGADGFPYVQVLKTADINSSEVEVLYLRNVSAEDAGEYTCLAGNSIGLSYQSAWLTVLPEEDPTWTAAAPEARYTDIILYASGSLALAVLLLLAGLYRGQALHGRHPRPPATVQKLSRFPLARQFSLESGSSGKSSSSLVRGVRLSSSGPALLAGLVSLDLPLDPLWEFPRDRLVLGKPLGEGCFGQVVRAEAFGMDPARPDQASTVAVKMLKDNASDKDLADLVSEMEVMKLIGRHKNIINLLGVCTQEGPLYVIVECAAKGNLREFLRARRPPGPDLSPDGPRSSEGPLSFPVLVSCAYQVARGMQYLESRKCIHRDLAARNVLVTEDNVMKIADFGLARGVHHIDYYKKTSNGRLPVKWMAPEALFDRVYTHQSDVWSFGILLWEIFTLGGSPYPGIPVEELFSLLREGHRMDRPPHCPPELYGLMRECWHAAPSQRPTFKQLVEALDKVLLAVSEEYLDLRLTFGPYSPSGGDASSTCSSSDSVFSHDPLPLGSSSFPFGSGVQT

[4] = biological target: 5'-AMP-activated protein kinase catalytic subunit alpha-2 (Homo sapiens) (UniProt P54646); assay: Inhibition of AMPKa2 Lys2 labeling site in human A-375 cells at 5 uM by KiNativ Profiling analysis relative to control; format: cell-based
5'-AMP-activated protein kinase catalytic subunit alpha-2 (Homo sapiens), sequence (P54646 whole entry, looked up): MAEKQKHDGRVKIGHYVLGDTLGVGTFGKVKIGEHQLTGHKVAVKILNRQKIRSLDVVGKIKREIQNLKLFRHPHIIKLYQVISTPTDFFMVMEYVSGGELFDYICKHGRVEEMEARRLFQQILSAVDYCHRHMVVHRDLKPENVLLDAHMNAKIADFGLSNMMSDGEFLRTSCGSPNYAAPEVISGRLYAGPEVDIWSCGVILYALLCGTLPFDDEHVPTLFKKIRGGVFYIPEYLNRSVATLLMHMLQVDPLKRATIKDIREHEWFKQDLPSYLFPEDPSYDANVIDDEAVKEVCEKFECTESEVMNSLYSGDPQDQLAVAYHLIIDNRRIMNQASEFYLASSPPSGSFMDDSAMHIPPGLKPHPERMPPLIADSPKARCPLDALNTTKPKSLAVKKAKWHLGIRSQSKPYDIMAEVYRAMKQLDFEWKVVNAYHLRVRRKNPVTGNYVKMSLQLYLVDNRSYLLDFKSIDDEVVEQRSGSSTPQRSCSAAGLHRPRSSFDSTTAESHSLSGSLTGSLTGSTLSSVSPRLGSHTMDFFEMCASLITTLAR

[5] = biological target: Tyrosine-protein kinase Yes (Homo sapiens) (UniProt P07947); assay: Inhibition of YES ACT labeling site in human Huh-7 cells at 10 uM by KiNativ Profiling analysis relative to control; format: cell-based
Tyrosine-protein kinase Yes (Homo sapiens), sequence (P07947 2-543 limits assumed): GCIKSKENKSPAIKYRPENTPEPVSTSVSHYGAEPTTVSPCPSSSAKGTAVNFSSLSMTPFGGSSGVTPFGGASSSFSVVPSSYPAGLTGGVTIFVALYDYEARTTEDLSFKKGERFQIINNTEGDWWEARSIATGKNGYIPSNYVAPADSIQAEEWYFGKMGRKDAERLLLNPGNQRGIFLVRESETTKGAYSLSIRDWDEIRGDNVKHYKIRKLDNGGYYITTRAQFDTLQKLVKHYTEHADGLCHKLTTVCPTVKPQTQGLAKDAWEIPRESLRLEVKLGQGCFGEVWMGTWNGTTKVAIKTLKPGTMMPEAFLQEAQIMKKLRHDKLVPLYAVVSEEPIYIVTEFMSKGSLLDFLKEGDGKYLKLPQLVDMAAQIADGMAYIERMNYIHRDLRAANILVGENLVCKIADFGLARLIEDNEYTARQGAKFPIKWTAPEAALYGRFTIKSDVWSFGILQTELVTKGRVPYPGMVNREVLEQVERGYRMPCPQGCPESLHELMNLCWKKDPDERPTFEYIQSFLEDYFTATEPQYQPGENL

[6] = biological target: T2, Mitogen-activated protein kinase kinase kinase 5 (Homo sapiens) (UniProt Q99683); assay: Inhibition of MAP3K5 Lys1 labeling site harbouring IAIKEIPERDSR in human A-375 cells at 0.05 uM by KiNativ Profiling analysis relative to control; format: cell-based
T2 sequence (whole entry): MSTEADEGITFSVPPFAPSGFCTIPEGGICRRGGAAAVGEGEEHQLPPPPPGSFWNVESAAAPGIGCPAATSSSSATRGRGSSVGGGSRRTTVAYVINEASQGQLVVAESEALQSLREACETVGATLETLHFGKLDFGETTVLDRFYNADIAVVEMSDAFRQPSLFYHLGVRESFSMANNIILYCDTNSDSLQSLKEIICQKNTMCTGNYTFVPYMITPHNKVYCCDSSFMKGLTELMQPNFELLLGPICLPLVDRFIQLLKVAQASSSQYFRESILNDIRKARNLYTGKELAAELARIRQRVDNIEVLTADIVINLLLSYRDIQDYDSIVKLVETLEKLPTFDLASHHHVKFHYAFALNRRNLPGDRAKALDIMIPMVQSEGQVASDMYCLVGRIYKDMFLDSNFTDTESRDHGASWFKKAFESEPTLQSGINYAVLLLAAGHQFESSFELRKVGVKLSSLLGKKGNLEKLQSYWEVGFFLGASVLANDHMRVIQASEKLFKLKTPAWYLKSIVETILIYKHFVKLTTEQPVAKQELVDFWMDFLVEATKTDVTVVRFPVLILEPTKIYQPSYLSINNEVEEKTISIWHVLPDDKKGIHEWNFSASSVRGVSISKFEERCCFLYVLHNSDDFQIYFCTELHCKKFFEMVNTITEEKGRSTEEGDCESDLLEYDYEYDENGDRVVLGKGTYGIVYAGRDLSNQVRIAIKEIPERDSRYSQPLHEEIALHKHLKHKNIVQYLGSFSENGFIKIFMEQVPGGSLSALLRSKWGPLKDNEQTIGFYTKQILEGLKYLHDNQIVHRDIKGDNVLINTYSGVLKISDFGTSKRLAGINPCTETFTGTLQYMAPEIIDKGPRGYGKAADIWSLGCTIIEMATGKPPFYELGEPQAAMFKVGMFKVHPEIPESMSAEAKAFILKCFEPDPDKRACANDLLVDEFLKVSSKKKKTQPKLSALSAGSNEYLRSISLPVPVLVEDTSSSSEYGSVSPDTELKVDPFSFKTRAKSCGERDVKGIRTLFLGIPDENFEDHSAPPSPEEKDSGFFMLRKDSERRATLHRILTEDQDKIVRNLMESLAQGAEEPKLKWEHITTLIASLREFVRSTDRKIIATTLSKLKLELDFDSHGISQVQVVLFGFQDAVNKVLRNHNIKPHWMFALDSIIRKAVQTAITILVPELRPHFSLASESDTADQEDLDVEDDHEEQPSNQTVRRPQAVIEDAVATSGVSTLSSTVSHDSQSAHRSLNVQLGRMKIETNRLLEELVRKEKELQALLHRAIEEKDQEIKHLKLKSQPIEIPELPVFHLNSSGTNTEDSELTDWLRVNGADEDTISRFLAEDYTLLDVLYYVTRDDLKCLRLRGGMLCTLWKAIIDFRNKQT

[7] = test system: Receptor-type tyrosine-protein kinase FLT3 (Homo sapiens), P36888 [D835H]; assay: Inhibition of FLT3 D835H mutant (unknown origin) at 10 uM by Ambit Kinomescan binding assay relative to control
[8] = biological target: TRAF2 and NCK-interacting protein kinase (Homo sapiens) (UniProt Q9UKE5); assay: Inhibition of ZC2/TNIK Lys2 labeling site in human A-375 cells at 5 uM by KiNativ Profiling analysis relative to control; format: cell-based
TRAF2 and NCK-interacting protein kinase (Homo sapiens), sequence (Q9UKE5 whole entry, looked up): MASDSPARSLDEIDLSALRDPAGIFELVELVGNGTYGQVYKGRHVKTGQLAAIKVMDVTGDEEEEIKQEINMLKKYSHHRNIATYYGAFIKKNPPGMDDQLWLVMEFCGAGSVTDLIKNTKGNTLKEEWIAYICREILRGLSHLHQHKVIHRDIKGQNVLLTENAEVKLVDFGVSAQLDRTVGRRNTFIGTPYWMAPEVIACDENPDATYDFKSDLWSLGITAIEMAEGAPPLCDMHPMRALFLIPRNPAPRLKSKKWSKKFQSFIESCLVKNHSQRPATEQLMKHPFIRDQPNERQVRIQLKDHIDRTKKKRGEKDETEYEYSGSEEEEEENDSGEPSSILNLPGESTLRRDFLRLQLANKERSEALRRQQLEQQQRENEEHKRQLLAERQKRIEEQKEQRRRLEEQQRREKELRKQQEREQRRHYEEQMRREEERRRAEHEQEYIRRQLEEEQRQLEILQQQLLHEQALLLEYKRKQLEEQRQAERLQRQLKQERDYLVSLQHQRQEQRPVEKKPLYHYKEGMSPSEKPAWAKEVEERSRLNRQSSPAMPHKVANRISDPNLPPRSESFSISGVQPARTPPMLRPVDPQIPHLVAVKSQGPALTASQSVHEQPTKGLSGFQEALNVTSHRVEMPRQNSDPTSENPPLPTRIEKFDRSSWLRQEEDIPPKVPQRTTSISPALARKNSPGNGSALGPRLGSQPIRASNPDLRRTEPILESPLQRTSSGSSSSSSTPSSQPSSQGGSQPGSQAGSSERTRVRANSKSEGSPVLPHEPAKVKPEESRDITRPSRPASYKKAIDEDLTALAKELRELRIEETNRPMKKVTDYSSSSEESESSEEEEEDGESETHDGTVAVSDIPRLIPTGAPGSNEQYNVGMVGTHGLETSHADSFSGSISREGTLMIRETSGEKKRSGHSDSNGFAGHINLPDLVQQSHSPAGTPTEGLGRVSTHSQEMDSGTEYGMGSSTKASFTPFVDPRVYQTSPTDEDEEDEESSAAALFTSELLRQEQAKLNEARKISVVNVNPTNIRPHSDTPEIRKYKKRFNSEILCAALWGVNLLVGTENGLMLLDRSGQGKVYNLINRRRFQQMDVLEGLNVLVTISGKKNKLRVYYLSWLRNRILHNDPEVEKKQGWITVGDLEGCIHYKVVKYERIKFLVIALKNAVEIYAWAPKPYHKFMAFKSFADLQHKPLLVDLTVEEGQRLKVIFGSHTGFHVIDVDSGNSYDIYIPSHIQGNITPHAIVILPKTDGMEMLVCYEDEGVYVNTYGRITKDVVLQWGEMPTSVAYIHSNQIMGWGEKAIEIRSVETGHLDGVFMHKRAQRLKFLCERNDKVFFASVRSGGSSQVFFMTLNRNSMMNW

[9] = biological target: Cyclin-dependent kinase 5 (Homo sapiens) (UniProt Q00535); assay: Inhibition of CDK5 (unknown origin) at 10 uM by Ambit Kinomescan binding assay relative to control
Cyclin-dependent kinase 5 (Homo sapiens), sequence (Q00535 whole entry, looked up): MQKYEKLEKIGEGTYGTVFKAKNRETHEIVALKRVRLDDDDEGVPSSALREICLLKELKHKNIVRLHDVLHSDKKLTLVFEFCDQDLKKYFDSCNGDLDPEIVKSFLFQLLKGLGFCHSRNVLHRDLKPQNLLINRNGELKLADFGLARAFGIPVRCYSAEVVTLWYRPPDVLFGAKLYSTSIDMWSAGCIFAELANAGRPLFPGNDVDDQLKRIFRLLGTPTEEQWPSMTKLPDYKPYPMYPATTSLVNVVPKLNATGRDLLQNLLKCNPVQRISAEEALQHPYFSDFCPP

CNc1cc(Oc2cc(C(=O)Nc3cc(N4CCN(C)CC4)cc(C(F)(F)F)c3)ccc2C)ncn1
inhibition [1]: 26%
inhibition [2]: 0.4%

CCN1CCN(Cc2ccc(NC(=O)c3ccc(C)c(/C=C/c4cnc5[nH]ccc5c4OC)c3)cc2C(F)(F)F)CC1
residual activity [3]: 8.1%
inhibition [4]: 18.5%

CCN1CCN(Cc2ccc(NC(=O)c3ccc(C)c(Oc4ccnc5[nH]ccc45)c3)cc2C(F)(F)F)CC1
inhibition [5]: 25.2%
inhibition [6]: -3.3%
inhibition [7]: 1.2%
inhibition [8]: 92.7%
inhibition [9]: 19%
